We go through one compound from patent US20070207228A1, “Composition for Regulating the Trophism of Hair Follicles and the Cutaneous Production of Sebum and Use Thereof in Androgenic Alopecia” (priority 2004, published 2007).

This assay deals with 5-α-reductase. Description: in vivo inhibiting activity of 5-α-reductase: plasmatic DHT concentration after oral administration. Details: species or system Sprague-Dawley rats. The method, then: Determination in vivo of the inhibiting activity of 5-α-reductase of an extract of Boehmeria nippononivea.
For the in-vivo study of the inhibition of 5-α-reductase, Sprague-Dawley (Charles River Italia) male adult rats were used having a body weight of 200-250 g.
The animals were stalled under standard conditions: at a temperature of 22/23° C., with 65% relative humidity, by exposing them to light cycles of 12 h light/12 h darkness.
A standard diet in pellets (standard diet, Charles River) was administered to the rats, together with water ad libitum.
Samples were taken from the rear-orbital plexus, immediately before the pharmacological treatment (T0) and then at 3, 6 and 8 hours after administration.
The administration of the substance being tested was effected orally.
Furthermore, contemporarily with each sampling of the treated animals, samples were also taken from non-treated animals to determine the basal analyte level.
Plasma obtained from the whole blood, treated with EDTA after centrifugation, was preserved at −20° C. until analysis.
The plasmatic concentrations of DHT (dihydrotestosterone) were determined by a commercial kit (DSL, Chematil, Angri, SA) after extraction of the samples.
All the samples of an experimental set were analyzed together to reduce the inter analytical variability.

Values joined by “and” are separate entries in the source; they are usually repeats but may differ in a detail not shown here. Equal values may be shown once.

Regarding `CC(C)(C)NC(=O)[C@H]1CC[C@H]2[C@@H]3CC[C@H]4NC(=O)C=C[C@]4(C)[C@H]3CC[C@]12C` [Finasteride], the “plasmatic DHT concentration, individual animals” value reads like this: (Finasteride 1 mg oral, 3 hrs) 298.09 and 505.28 and 300.00 and 569.62 and 404.63 and 530.00; (Finasteride 1 mg oral, 6 hrs) 404.13 and 565.00 and 379.59 and 592.06 and 148.51 and 420.07; (Finasteride 1 mg oral, 8 hrs) 706.70 and 140.06 and 503.90 and 530.07 and 173.11 and 110.00; (Finasteride 5 mg oral, 3 hrs) 217.10 and 618.58 and 151.18 and 640.97 and 924.20 and 569.38; (Finasteride 5 mg oral, 6 hrs) 205.21 and 103.62 and 54.35 and 60.67 and 49.67 and 128.25 and 176.92 and 81.23; (Finasteride 5 mg oral, 8 hrs) 201.56 and 108.76 and 745.40 and 576.60 and 250.90 and 300.12. For the same compound, the “plasmatic DHT concentration, average” value by setting is: (Finasteride 1 mg oral, 3 hrs, n = 6) 434.603; (Finasteride 1 mg oral, 6 hrs, n = 6) 418.227; (Finasteride 1 mg oral, 8 hrs, n = 6) 360.640; (Finasteride 5 mg oral, 3 hrs, n = 6) 520.235; (Finasteride 5 mg oral, 6 hrs, n = 8) 107.490; (Finasteride 5 mg oral, 8 hrs, n = 6) 363.890. In addition, the “trend of the DHT concentration following administration” value (oral, 3, 6 and 8 hours after administration) was 8 hours after treatment, increases returning to the basal levels.
